From article PMC8185074, “Anchor extension: a structure-guided approach to design cyclic peptides targeting enzyme active sites” (Nature Communications, 2021)
Where “and” joins values, the source holds several entries; their conditions need not be identical. Equal entries are not always repeated. Peptide text beside a SMILES is read from it.

How the values were obtained:
HDAC6 = target: T1, HDAC6 (Homo sapiens, UniProt Q9UBN7); experiment: HDAC6 inhibition, full IC50 measurement (Reaction Biology; fluorogenic p53 peptide RHKK(Ac)AMC); assay type: biochemical; details: for IC50: figure legends, Supp. Tables 1 and 8, read-out: HDAC6 IC50
T1 construct: purchased Reaction Biology Corporation (assay run by the CRO)
T1 sequence (Q9UBN7 1-1215): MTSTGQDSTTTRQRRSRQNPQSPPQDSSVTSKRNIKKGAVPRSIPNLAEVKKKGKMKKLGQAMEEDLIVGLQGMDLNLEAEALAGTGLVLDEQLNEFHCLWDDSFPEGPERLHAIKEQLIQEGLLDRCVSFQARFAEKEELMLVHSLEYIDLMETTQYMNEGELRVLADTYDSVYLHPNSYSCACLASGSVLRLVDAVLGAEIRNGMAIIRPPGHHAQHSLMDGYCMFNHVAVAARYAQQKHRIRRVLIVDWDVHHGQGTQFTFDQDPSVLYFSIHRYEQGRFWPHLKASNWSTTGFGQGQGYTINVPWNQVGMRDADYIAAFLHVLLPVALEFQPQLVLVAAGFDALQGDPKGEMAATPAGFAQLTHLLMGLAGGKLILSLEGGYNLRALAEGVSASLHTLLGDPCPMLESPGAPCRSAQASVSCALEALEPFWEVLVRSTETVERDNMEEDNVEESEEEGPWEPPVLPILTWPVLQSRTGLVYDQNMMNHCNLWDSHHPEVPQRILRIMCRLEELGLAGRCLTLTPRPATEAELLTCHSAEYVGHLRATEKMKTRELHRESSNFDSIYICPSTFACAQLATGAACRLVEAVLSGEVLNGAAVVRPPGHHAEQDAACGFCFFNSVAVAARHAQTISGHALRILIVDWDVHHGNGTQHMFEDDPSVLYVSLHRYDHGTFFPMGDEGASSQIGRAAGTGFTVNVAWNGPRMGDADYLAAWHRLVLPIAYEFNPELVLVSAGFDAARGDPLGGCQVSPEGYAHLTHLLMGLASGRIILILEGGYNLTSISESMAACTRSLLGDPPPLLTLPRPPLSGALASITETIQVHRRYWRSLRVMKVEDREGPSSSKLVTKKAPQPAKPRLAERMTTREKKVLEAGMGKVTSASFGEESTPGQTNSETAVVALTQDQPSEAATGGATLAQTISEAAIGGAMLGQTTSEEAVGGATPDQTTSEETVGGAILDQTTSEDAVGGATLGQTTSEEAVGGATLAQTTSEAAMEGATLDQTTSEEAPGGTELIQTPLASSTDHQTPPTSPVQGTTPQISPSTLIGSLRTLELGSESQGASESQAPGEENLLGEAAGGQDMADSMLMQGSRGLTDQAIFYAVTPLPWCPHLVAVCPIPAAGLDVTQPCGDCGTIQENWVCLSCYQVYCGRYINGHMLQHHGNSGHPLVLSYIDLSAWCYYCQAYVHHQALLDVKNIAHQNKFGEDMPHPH
Method in brief: (§1)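 Deacetylation of 50 μM RHKK(Ac)AMC is measured after 1 h at 30 °C in pH 8.0 Tris buffer (1% DMSO, 1 mg/ml BSA). Developer ends the reaction; the post-plateau 360/460 nm signal is fitted to IC50, averaging replicate measurements.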

HDAC3 = target: T2, HDAC3 (Homo sapiens, UniProt O15379); experiment: HDAC3 inhibition, full IC50 measurement (Reaction Biology; fluorogenic p53 peptide RHKK(Ac)AMC); assay type: biochemical
T2 construct: purchased Reaction Biology Corporation (assay run by the CRO)
T2 sequence (O15379 whole entry): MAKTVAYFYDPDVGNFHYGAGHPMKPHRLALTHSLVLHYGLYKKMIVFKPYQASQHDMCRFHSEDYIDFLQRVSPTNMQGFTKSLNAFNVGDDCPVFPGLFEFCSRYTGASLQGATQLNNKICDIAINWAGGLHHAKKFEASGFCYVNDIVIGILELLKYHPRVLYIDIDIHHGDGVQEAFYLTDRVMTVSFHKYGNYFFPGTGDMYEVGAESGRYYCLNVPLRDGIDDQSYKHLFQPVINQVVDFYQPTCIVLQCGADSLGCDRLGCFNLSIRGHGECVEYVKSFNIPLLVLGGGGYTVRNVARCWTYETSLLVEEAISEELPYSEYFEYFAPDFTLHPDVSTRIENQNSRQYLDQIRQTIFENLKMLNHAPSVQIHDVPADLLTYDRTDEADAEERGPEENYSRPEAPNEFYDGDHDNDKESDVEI
T2 sequence (Q9Y618 395-489 partner limits assumed): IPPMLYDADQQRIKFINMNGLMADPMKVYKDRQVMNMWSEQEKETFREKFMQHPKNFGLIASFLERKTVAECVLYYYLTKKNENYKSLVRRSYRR
Method in brief: as §1

SMILES: CCCC[C@H]1NC(=O)[C@H](Cc2ccccc2)NC(=O)[C@H](CCCCCS)NC(=O)[C@@H](CCCNC(=N)N)NC(=O)[C@H](CC(=O)O)NC(=O)[C@@H](CO)NC(=O)[C@@H](C)NC(=O)[C@H](CCCCN)NC1=O [des4.3.1, SHA-Phe-dNle-Lys-dAla-dSer-Asp-dArg] (HELM PEPTIDE1{D.[dR].[O=C([C@H](CCCCCS)N[*:1])[*:2]].F.[CCCC[C@@H](N[*:1])C(=O)[*:2]].K.[dA].[dS]}$PEPTIDE1,PEPTIDE1,1:R1-8:R2$$$V2.0)
- 6-Selectivity: fold potency for HDAC6 over HDAC2 (HDAC6): 88.2 fold and 88 fold
- HDAC6 activity raw data (signal) (HDAC6; Conc. 1.00E-05 M, t1): 5754
- HDAC6 activity raw data (signal) (HDAC6; Conc. 1.00E-05 M, t2): 4634
- HDAC6 activity raw data (signal) (HDAC6; Conc. 1.11E-06 M, t1): 10293
- HDAC6 activity raw data (signal) (HDAC6; Conc. 1.11E-06 M, t2): 17466
- HDAC6 activity raw data (signal) (HDAC6; Conc. 1.23E-07 M, t1): 97345
- HDAC6 activity raw data (signal) (HDAC6; Conc. 1.23E-07 M, t2): 90888
- HDAC6 activity raw data (signal) (HDAC6; Conc. 1.37E-08 M, t1): 307015
- HDAC6 activity raw data (signal) (HDAC6; Conc. 1.37E-08 M, t2): 326589
- HDAC6 activity raw data (signal) (HDAC6; Conc. 1.52E-09 M, t1): 510826
- HDAC6 activity raw data (signal) (HDAC6; Conc. 1.52E-09 M, t2): 490649
- HDAC6 activity raw data (signal) (HDAC6; Conc. 3.33E-06 M, t1): 6046
- HDAC6 activity raw data (signal) (HDAC6; Conc. 3.33E-06 M, t2): 6920
- HDAC6 activity raw data (signal) (HDAC6; Conc. 3.70E-07 M, t1): 48261
- HDAC6 activity raw data (signal) (HDAC6; Conc. 3.70E-07 M, t2): 37034
- HDAC6 activity raw data (signal) (HDAC6; Conc. 4.12E-08 M, t1): 179198
- HDAC6 activity raw data (signal) (HDAC6; Conc. 4.12E-08 M, t2): 202702
- HDAC6 activity raw data (signal) (HDAC6; Conc. 4.57E-09 M, t1): 433664
- HDAC6 activity raw data (signal) (HDAC6; Conc. 4.57E-09 M, t2): 442171
- HDAC6 activity raw data (signal) (HDAC6; Conc. 5.08E-10 M, t1): 531205
- HDAC6 activity raw data (signal) (HDAC6; Conc. 5.08E-10 M, t2): 556727
- IC50 (HDAC6): 17.1 nM
- HDAC3 activity raw data (signal) (HDAC3; Conc. 1.00E-05 M, t1): 46115
- HDAC3 activity raw data (signal) (HDAC3; Conc. 1.00E-05 M, t2): 35378
- HDAC3 activity raw data (signal) (HDAC3; Conc. 1.11E-06 M, t1): 372696
- HDAC3 activity raw data (signal) (HDAC3; Conc. 1.11E-06 M, t2): 416274
- HDAC3 activity raw data (signal) (HDAC3; Conc. 1.23E-07 M, t1): 1045370
- HDAC3 activity raw data (signal) (HDAC3; Conc. 1.23E-07 M, t2): 1070696
- HDAC3 activity raw data (signal) (HDAC3; Conc. 1.37E-08 M, t1): 1250439
- HDAC3 activity raw data (signal) (HDAC3; Conc. 1.37E-08 M, t2): 1300529
- HDAC3 activity raw data (signal) (HDAC3; Conc. 1.52E-09 M, t1): 1121419
- HDAC3 activity raw data (signal) (HDAC3; Conc. 1.52E-09 M, t2): 1274974
- HDAC3 activity raw data (signal) (HDAC3; Conc. 3.33E-06 M, t1): 172249
- HDAC3 activity raw data (signal) (HDAC3; Conc. 3.33E-06 M, t2): 152173
- HDAC3 activity raw data (signal) (HDAC3; Conc. 3.70E-07 M, t1): 787295
- HDAC3 activity raw data (signal) (HDAC3; Conc. 3.70E-07 M, t2): 779442
- HDAC3 activity raw data (signal) (HDAC3; Conc. 4.12E-08 M, t1): 1318255
- HDAC3 activity raw data (signal) (HDAC3; Conc. 4.12E-08 M, t2): 1249169
- HDAC3 activity raw data (signal) (HDAC3; Conc. 4.57E-09 M, t1): 1278679
- HDAC3 activity raw data (signal) (HDAC3; Conc. 4.57E-09 M, t2): 1136444
- HDAC3 activity raw data (signal) (HDAC3; Conc. 5.08E-10 M, t1): 1099296
- HDAC3 activity raw data (signal) (HDAC3; Conc. 5.08E-10 M, t2): 1140869

SMILES: CC(C)[C@@H]1NC(=O)[C@H](CCCNC(=N)N)NC(=O)[C@@H](CC(=O)O)NC(=O)[C@H](CO)NC(=O)[C@@H](CO)NC(=O)[C@@H](CCC(=O)O)NC(=O)[C@H](Cc2ccc(O)cc2)NC(=O)[C@H](CCCCCS)NC1=O [des4.2.0, SHA-Tyr-dGlu-dSer-Ser-dAsp-Arg-Val] (HELM PEPTIDE1{R.V.[O=C([C@H](CCCCCS)N[*:1])[*:2]].Y.[dE].[dS].S.[dD]}$PEPTIDE1,PEPTIDE1,1:R1-8:R2$$$V2.0)
- HDAC6 activity raw data (signal) (HDAC6; Conc. 1.00E-05 M, t1): -7055
- HDAC6 activity raw data (signal) (HDAC6; Conc. 1.00E-05 M, t2): -3082
- HDAC6 activity raw data (signal) (HDAC6; Conc. 1.11E-06 M, t1): 103285
- HDAC6 activity raw data (signal) (HDAC6; Conc. 1.11E-06 M, t2): 106610
- HDAC6 activity raw data (signal) (HDAC6; Conc. 1.23E-07 M, t1): 299609
- HDAC6 activity raw data (signal) (HDAC6; Conc. 1.23E-07 M, t2): 290391
- HDAC6 activity raw data (signal) (HDAC6; Conc. 1.37E-08 M, t1): 820280
- HDAC6 activity raw data (signal) (HDAC6; Conc. 1.37E-08 M, t2): 820159
- HDAC6 activity raw data (signal) (HDAC6; Conc. 1.52E-09 M, t1): 1558048
- HDAC6 activity raw data (signal) (HDAC6; Conc. 1.52E-09 M, t2): 1527304
- HDAC6 activity raw data (signal) (HDAC6; Conc. 3.33E-06 M, t1): 43007
- HDAC6 activity raw data (signal) (HDAC6; Conc. 3.33E-06 M, t2): 45218
- HDAC6 activity raw data (signal) (HDAC6; Conc. 3.70E-07 M, t1): 181567
- HDAC6 activity raw data (signal) (HDAC6; Conc. 3.70E-07 M, t2): 190636
- HDAC6 activity raw data (signal) (HDAC6; Conc. 4.12E-08 M, t1): 459108
- HDAC6 activity raw data (signal) (HDAC6; Conc. 4.12E-08 M, t2): 432840
- HDAC6 activity raw data (signal) (HDAC6; Conc. 4.57E-09 M, t1): 1111578
- HDAC6 activity raw data (signal) (HDAC6; Conc. 4.57E-09 M, t2): 1107939
- HDAC6 activity raw data (signal) (HDAC6; Conc. 5.08E-10 M, t1): 1904356
- HDAC6 activity raw data (signal) (HDAC6; Conc. 5.08E-10 M, t2): 1828745
- selectivity for HDAC6 over HDAC8 (HDAC6; Supp. Table 8): 80 fold
- selectivity for HDAC6 over HDACs1/2/3 (HDAC6; Supp. Table 8): > 10 fold
- IC50 (HDAC6): 4.4 nM
- HDAC3 activity raw data (signal) (HDAC3; Conc. 1.00E-05 M, t1): 26422
- HDAC3 activity raw data (signal) (HDAC3; Conc. 1.00E-05 M, t2): 22359
- HDAC3 activity raw data (signal) (HDAC3; Conc. 1.11E-06 M, t1): 160928
- HDAC3 activity raw data (signal) (HDAC3; Conc. 1.11E-06 M, t2): 163740
- HDAC3 activity raw data (signal) (HDAC3; Conc. 1.23E-07 M, t1): 525206
- HDAC3 activity raw data (signal) (HDAC3; Conc. 1.23E-07 M, t2): 581691
- HDAC3 activity raw data (signal) (HDAC3; Conc. 1.37E-08 M, t1): 1076943
- HDAC3 activity raw data (signal) (HDAC3; Conc. 1.37E-08 M, t2): 1111273
- HDAC3 activity raw data (signal) (HDAC3; Conc. 1.52E-09 M, t1): 1186064
- HDAC3 activity raw data (signal) (HDAC3; Conc. 1.52E-09 M, t2): 1359852
- HDAC3 activity raw data (signal) (HDAC3; Conc. 3.33E-06 M, t1): 71800
- HDAC3 activity raw data (signal) (HDAC3; Conc. 3.33E-06 M, t2): 63219
- HDAC3 activity raw data (signal) (HDAC3; Conc. 3.70E-07 M, t1): 296381
- HDAC3 activity raw data (signal) (HDAC3; Conc. 3.70E-07 M, t2): 296142
- HDAC3 activity raw data (signal) (HDAC3; Conc. 4.12E-08 M, t1): 806773
- HDAC3 activity raw data (signal) (HDAC3; Conc. 4.12E-08 M, t2): 863981
- HDAC3 activity raw data (signal) (HDAC3; Conc. 4.57E-09 M, t1): 1182733
- HDAC3 activity raw data (signal) (HDAC3; Conc. 4.57E-09 M, t2): 1313514
- HDAC3 activity raw data (signal) (HDAC3; Conc. 5.08E-10 M, t1): 1345816
- HDAC3 activity raw data (signal) (HDAC3; Conc. 5.08E-10 M, t2): 1394913
- IC50 (HDAC3; Supp. Table 1): 71.2 nM
